Results: ChEMBL document CHEMBL4421734, “Means and methods for treatment of early-onset parkinson''s disease” (2016)
Activity calls are given as the source filed them. No cut-off for these calls is given here.

Key:
[1] = target: 3-oxoacyl-[acyl-carrier-protein] reductase (Drosophila melanogaster) (UniProt B7Z001); test: Inhibition of FASN in one day old PINK1 mutant containing Drosophila melanogaster assessed as rescue of defective flight at 0.1 to 300 uM dosed with food incubated for 72 hrs; type: organism-based
[2] = target: 3-oxoacyl-[acyl-carrier-protein] reductase (Drosophila melanogaster) (UniProt B7Z001); test: Inhibition of FASN in one day old PINK1 mutant containing Drosophila melanogaster assessed as rescue of defective flight at 100 to 300 uM dosed with food incubated for 72 hrs; type: organism-based
[3] = target: Fatty acid synthase (Mus musculus) (UniProt P19096); test: Inhibition of FASN in PINK1 (-/-) MEF assessed as rescue of mitochondrial dysfunction by measuring ATP levels by luminometry; type: cell-based
Fatty acid synthase (Mus musculus), sequence (P19096 whole entry): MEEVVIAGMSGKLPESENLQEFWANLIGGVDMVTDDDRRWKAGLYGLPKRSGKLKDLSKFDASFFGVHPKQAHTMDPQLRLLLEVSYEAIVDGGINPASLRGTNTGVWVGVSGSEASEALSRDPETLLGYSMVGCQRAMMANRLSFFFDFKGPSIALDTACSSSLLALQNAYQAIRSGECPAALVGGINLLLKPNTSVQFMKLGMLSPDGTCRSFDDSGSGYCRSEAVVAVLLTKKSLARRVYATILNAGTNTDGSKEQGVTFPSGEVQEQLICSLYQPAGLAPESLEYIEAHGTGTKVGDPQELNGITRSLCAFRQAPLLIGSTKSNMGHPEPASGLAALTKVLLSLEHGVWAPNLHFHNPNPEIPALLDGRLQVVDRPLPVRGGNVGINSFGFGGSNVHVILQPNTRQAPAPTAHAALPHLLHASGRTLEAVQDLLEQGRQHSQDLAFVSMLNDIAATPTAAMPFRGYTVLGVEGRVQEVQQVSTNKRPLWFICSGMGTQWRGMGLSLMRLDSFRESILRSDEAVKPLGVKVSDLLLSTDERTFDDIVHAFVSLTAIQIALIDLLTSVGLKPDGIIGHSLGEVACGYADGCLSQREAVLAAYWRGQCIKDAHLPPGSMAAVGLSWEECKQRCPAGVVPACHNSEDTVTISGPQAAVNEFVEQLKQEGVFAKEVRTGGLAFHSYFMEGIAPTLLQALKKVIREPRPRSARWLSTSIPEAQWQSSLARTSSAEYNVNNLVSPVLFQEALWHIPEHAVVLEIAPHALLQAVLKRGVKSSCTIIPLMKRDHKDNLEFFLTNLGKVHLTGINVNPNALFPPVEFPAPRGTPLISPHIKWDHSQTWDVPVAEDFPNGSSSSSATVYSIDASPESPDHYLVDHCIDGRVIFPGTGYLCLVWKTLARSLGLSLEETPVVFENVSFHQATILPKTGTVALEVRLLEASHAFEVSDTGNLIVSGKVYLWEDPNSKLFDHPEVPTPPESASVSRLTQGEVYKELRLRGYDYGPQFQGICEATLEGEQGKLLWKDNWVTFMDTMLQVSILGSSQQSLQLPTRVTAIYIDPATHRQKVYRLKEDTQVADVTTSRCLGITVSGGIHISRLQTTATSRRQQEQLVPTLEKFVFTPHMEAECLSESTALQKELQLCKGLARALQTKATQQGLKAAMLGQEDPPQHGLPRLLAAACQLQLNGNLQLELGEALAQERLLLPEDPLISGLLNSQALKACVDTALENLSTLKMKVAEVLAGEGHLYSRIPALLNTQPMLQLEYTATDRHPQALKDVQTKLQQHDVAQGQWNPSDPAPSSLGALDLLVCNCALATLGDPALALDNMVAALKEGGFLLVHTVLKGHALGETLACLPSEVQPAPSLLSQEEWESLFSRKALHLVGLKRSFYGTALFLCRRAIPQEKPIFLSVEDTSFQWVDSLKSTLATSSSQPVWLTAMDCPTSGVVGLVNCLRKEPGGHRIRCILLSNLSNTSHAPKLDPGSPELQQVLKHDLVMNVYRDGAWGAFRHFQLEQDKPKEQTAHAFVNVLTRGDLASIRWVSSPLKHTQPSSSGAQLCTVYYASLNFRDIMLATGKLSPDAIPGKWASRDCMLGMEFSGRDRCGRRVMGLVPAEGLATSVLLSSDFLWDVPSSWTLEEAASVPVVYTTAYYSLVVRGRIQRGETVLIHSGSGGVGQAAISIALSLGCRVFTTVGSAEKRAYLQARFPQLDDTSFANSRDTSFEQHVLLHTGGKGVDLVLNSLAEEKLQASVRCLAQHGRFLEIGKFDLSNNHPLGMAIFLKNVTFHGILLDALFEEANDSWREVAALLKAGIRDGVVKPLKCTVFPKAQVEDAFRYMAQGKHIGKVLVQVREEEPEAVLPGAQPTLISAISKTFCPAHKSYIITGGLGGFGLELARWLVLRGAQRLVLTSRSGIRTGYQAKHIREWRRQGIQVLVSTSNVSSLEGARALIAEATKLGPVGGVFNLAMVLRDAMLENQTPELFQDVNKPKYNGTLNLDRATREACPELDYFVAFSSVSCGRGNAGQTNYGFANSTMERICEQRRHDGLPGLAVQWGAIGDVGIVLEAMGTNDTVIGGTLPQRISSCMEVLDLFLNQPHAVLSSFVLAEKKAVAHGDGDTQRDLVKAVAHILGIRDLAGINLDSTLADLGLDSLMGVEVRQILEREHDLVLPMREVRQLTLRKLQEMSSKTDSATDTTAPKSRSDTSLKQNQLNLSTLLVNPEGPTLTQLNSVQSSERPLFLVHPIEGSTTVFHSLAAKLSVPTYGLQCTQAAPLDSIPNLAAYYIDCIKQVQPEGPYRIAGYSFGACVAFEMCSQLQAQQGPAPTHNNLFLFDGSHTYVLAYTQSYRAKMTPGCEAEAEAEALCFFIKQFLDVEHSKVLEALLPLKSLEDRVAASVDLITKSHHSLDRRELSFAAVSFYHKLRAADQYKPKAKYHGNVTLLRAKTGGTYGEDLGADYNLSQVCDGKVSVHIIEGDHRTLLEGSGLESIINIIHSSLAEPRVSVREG

3-oxoacyl-[acyl-carrier-protein] reductase (Drosophila melanogaster), sequence (B7Z001 as listed by the source): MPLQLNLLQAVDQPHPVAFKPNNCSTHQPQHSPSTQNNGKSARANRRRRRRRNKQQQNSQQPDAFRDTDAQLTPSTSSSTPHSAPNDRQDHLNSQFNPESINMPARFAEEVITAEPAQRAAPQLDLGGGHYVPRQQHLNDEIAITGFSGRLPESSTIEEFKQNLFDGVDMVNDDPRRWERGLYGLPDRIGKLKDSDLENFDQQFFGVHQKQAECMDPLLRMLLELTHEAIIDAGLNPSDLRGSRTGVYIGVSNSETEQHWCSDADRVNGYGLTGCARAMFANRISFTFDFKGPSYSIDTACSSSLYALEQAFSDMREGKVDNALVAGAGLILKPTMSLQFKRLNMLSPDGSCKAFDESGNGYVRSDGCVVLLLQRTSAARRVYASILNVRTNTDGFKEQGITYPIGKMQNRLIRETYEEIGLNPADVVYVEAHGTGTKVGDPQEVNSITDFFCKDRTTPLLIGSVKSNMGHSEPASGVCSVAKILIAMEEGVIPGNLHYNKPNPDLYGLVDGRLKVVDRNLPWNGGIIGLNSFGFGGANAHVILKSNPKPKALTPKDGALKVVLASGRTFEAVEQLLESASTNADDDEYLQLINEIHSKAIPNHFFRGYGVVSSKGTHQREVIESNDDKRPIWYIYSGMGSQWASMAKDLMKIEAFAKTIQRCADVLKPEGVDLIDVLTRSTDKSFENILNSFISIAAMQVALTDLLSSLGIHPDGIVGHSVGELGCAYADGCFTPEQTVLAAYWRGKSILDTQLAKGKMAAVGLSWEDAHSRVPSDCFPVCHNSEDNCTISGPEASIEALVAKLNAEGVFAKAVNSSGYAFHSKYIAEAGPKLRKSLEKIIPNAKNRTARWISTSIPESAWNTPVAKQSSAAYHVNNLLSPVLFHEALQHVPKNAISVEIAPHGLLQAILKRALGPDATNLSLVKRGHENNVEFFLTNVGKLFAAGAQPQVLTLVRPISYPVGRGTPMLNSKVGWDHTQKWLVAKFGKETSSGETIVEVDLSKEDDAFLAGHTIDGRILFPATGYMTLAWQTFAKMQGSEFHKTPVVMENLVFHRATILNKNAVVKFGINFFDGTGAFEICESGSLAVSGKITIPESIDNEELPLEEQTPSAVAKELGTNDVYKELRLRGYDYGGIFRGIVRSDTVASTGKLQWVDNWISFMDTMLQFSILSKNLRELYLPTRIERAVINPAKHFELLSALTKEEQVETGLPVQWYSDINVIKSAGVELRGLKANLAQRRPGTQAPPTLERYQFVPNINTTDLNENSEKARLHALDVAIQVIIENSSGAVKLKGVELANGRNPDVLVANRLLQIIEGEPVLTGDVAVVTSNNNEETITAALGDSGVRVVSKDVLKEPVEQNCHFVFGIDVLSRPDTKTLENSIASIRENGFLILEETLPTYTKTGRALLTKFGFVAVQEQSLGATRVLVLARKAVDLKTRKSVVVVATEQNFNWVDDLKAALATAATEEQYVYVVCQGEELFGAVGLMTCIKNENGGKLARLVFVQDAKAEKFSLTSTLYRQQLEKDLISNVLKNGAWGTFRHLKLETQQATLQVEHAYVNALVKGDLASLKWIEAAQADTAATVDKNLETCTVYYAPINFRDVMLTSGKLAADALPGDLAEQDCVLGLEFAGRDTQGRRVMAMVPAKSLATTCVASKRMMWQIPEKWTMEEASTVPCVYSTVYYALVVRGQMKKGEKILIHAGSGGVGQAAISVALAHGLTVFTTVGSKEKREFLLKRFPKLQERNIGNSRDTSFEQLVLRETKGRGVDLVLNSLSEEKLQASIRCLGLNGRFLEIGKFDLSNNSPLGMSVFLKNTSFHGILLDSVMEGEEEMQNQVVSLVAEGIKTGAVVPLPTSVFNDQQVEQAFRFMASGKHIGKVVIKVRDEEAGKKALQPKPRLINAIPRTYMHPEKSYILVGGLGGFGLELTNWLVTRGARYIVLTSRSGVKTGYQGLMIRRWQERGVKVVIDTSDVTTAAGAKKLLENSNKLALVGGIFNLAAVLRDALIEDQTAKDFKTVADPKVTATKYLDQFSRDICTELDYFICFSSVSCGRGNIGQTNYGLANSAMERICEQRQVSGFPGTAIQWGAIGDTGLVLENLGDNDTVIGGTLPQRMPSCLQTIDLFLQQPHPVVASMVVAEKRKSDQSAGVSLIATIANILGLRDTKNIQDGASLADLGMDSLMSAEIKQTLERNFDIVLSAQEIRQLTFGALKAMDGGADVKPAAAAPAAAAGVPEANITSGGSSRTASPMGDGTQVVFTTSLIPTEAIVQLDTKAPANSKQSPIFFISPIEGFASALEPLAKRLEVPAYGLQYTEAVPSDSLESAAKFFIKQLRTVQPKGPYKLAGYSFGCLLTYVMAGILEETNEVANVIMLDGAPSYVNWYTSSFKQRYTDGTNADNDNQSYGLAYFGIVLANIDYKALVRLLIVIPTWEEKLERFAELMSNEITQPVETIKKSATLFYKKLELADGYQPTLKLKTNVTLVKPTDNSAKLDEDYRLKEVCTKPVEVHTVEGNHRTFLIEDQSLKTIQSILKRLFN

Row | Structure (SMILES) | inhibition [1] | inhibition [2] | inhibition [3]
1 | Oc1cc(Cl)ccc1Oc1ccc(Cl)cc1Cl | Dose-dependent effect | – | –
2 | C/C=C/C/C=C/CCC(=O)[C@H]1O[C@H]1C(N)=O | – | Dose-dependent effect | Active
